Conditions: in water

Question: With `CC(C)(C)CC(C)(C)c1ccc(O)cc1` as the compound, how does the solubility (mole fraction) (298.1 K) read?
Answer: 1.32e-06

Question: What about the solubility (mole fraction) (303.1 K) of the same compound?
Answer: 1.55e-06

Question: What about the solubility (mole fraction) (310.1 K) of the same compound?
Answer: 1.91e-06

Question: What about the solubility (mole fraction) (318.1 K) of the same compound?
Answer: 2.52e-06

Question: What about the solubility (mole fraction) (328.1 K) of the same compound?
Answer: 3.83e-06

Question: With `CCCCCCCCCc1ccc(O)cc1` as the compound, how does the solubility (mole fraction) (298.1 K) read?
Answer: 4e-08

Question: And the solubility (mole fraction) (303.1 K)?
Answer: 5e-08

Question: What about the solubility (mole fraction) (310.1 K) of the same compound?
Answer: 7e-08

Question: What about the solubility (mole fraction) (318.1 K) of the same compound?
Answer: 1.4e-07

Question: What about the solubility (mole fraction) (328.1 K) of the same compound?
Answer: 2e-07

Question: With `CCCCCCCCc1ccc(O)cc1` as the compound, how does the solubility (mole fraction) (298.1 K) read?
Answer: 2.9e-07

Question: What about the solubility (mole fraction) (303.1 K) of the same compound?
Answer: 3.4e-07

Question: And the solubility (mole fraction) (310.1 K)?
Answer: 4.7e-07

Question: What about the solubility (mole fraction) (318.1 K) of the same compound?
Answer: 6.4e-07

Question: And the solubility (mole fraction) (328.1 K)?
Answer: 8.4e-07
